From US20140329755A1, “COMBINATION THERAPY FOR THE TREATMENT OF ARRHYTHMIAS OR HEART FAILURE” (Gilead Sciences, Inc., priority 2013, published 2014)
Like-named read-outs stand apart in the source and are kept apart here.

Tests used:
[1] = test system: isolated rat right atria; test: ATX-II-induced AF in isolated rat right atria; settings: 3 μmol/L ranolazine, 100 nmol/L GS967, 300 nmol/L KN-93, 300 nmol/L AIP, alone or combined; FIG. 1
Method: (§1) Rats were anesthetized by intraperitoneal injection of 60 mg/kg ketamine and 8 mg/kg xylazine. The heart was rapidly removed and immersed in oxygenated Krebs-Henseleit buffer (in mmol/L: 118 NaCl, 4.8 KCl, 1.2 KH2PO4, 2.5 CaCl2, 1.2, MgSO4, 2 pyruvic acid, 5.5 glucose, 0.5 Na2EDTA, and 25 NaHCO3, pH 7.4). Rat right atria were quickly excised and suspended in a chamber of the Danish Myo Technologies (DMT) myograph containing 8 ml of oxygenated Krebs-Henseleit buffer. Mechanical and electrical changes were measured simultaneously in spontaneously beating atria. Isometric tension was recorded by a force transducer connected to a PowerLab data acquisition system (AD Instruments, Colorado Springs, Colo.). A bipolar electrode was attached to the surface of the atrium to record an electrogram. After stabilization, the atria were preincubated with a late INa inhibitor (0.1 μmol/L GS967 or 3 μmol/L ranolazine), a CaMKII inhibitor ((0.3 μmol/L AIP or 0.3 μmol/L KN-93) or their combination for 30 min, then treated with 50 nmol/L ATX-II to induce arrhythmias and diastolic dysfunction.
(§2) Isolated right atria beat spontaneously at a rate of 298+12 bpm. ATX-II induced premature beats, tachyarrhythmia and fibrillation in rat isolated right atria. Arrhythmias were recorded for 30 min following ATX-II treatment, and quantified using an arbitrary numerical grading of perceived severity as described previously (32) and shown in Table 1.

[2] = test system: isolated rat right atria; test: ATX-II-induced arrhythmias in spontaneously beating isolated rat right atria (arrhythmia score); settings: for IC50: isolated rat right atria, read-out: IC50, prevention of ATX-II induced arrhythmias and diastolic dysfunction
Method: as §1, §2

[3] = test system: isolated rat right atria; test: ATX-II-induced increase of diastolic tension in isolated rat right atria; settings: 3 μM RAN, 0.1 μM GS-967, 0.3 μM KN-93, 0.3 μM AIP, alone or combined, 50 nmol/L ATX-II
Method: as §1

[4] = molecular target: peak INa (Homo sapiens, UniProt Q14524); settings: cited from earlier work
[5] = test system: isolated ventricular myocytes and hearts; settings: cited from earlier work
[6] = test system: isolated rat atrial myocytes; test: ATX-II-induced diastolic Ca2+ increase in isolated rat atrial myocytes; assay type: cell-based; settings: 100 nmol/L GS967, 300 nmol/L AIP, alone or combined; FIG. 3
Method: Adult male rats were anesthetized and hearts were rapidly removed and perfused in a retrograde mode (Langendorff preparation) with a modified Tyrode solution containing (in mmol/L): NaCl (135), KCl (4.6), MgCl2 (1.1), NaH2PO4 (1) glucose (10), HEPES (10), pH 7.4. Hearts were perfused for 5 min with a nominal Ca^2+-free Tyrode solution, then with a low Ca^2+ (2 µmol/L) solution containing 0.896 mg/ml collagenase type II (Worthington, USA) and 0.68 mg/ml bovine serum albumin (BSA) for 8-11 min at 37° C. […]
[Molecular Probes, USA], indo-1 AM [Molecular Probes] or 5 μmol/L Asante NaTRIUM Green 2 AM (Teflabs, USA) by incubation for 25 min at 23° C. in bath solution containing 1.0 mmol/L Ca^2+, and 2.5 μmol/L pluronic acid (Molecular Probes). Fluo-4 was excited at 488 nm, and the fluorescence was acquired at wavelengths >505 nm in the line scan mode or XY mode of the confocal system. Asante NaTRIUM Green 2 was excited at 543 nm, and fluorescence was acquired at wavelengths >560 nm in the XY scan mode. Intracellular calcium concentrations were monitored in electrically stimulated cells loaded with indo-1 AM using an IonOptix spectrophotometer (IonOptix, Milton, Mass.). […] Emitted fluorescence (405 nm and 485 nm) was detected by a photomultiplier tube. […] Fluorescent images were analyzed using ImageJ software (NIH) and Origin 8.1 (OriginLab, USA).

[7] = test system: late INa; settings: isolated hearts; read-out: IC50, ATX-II-induced late INa; cited from earlier work
[8] = test system: late INa; settings: cited from earlier work
[9] = 3 μM RAN, 0.1 μM GS-967, 0.3 μM KN-93, 0.3 μM AIP, alone or combined, 30 min preincubation, then 50 nmol/L ATX-II
[10] = Rattus norvegicus, 3 μM RAN, 0.1 μM GS-967, 0.3 μM KN-93, 0.3 μM AIP, alone or combined, 30 min preincubation, then 50 nmol/L ATX-II, read-out: measured % Inhibition of ATX-II-induced arrhythmias
[11] = Rattus norvegicus, read-out: Measured % Inhibition of ATX-II-induced increase of diastolic tension

peak INa, sequence (Q14524 whole entry): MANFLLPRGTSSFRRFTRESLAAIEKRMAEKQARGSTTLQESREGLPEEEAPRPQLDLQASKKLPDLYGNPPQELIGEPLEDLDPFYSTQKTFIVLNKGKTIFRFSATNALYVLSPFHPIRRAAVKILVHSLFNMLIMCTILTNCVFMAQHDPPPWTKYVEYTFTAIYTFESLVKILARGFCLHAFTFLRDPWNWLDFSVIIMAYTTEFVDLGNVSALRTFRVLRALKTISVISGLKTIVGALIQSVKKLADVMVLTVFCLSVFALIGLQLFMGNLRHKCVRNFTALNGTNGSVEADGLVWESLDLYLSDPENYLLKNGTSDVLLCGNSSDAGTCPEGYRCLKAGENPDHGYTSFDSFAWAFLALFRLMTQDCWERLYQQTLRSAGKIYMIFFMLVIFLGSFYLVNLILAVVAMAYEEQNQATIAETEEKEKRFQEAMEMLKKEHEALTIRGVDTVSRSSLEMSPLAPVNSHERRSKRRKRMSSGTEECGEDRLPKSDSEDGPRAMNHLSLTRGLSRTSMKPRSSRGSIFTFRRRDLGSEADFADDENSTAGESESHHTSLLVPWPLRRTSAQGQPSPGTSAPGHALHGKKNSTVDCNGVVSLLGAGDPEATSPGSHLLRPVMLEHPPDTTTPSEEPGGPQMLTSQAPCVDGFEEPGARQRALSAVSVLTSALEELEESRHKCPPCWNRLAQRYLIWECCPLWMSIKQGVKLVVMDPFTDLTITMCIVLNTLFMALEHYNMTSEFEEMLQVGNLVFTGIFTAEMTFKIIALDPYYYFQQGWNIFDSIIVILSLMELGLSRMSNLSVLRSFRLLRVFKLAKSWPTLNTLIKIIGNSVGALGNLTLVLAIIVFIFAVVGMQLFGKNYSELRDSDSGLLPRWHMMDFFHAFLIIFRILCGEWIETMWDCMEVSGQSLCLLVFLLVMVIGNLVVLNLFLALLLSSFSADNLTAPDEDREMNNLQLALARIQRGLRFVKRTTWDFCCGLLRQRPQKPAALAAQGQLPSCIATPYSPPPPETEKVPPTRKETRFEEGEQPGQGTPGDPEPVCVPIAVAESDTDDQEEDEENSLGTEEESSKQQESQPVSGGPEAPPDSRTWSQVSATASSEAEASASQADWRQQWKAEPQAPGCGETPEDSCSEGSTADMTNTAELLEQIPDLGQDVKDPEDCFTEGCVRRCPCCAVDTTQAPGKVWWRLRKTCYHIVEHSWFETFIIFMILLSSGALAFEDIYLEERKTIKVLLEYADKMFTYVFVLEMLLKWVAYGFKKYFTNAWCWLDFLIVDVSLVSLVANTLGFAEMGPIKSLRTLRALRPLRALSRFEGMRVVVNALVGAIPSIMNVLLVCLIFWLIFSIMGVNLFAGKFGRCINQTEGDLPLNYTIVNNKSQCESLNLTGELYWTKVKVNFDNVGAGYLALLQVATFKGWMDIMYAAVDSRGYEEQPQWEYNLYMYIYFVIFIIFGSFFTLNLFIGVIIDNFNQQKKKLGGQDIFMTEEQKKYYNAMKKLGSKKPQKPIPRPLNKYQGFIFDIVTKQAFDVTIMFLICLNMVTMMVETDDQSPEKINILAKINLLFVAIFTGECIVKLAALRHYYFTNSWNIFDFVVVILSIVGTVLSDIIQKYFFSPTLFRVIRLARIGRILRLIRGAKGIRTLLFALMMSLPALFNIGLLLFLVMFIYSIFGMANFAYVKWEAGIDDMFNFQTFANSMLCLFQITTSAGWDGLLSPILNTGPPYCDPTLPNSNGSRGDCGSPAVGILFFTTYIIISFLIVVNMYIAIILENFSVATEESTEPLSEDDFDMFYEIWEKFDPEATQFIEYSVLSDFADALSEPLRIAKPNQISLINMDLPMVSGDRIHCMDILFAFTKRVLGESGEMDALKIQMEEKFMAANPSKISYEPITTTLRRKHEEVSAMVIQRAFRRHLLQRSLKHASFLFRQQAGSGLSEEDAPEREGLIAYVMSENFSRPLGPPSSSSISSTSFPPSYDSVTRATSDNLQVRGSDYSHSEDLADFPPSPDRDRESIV

Row | SMILES | effect on ATX-II-induced AF [1] | measured % Inhibition of ATX-II-induced arrhythmias [2, 9] [%] | inhibition at 0.3 µM [2, 10] [%] | effect on ATX-II induced arrhythmias and diastolic dysfunction ([2]; rat right atria) | inhibition at 0.3 µM [3, 11] [%] | inhibition at 0.1 µM [2, 10] [%] | IC50 [2] [µM] | Reduction of peak INa ([4]; holding potential of −120 mV) | Reduction of peak INa ([4]; holding potential −80 mV) | proarrhythmic effects (afterdepolarizations and torsades de pointes) of ATX-II and E-4031 [5] | inhibition at 0.1 µM [3, 11] [%] | inhibition of the ATX-II-induced increase of diastolic Ca2+ [6] [%] | IC50 [7] [nM] | IC50 ([8]; ventricular myocytes, read-out: IC50, ATX-II-induced late INa) [nM] | reduction of late INa and arrhythmias compared with flecainide or ranolazine ([8]; vs flecainide or ranolazine) | measured % Inhibition of ATX-II-induced arrhythmias ([2]; 3 μM RAN, 0.1 μM GS-967, 0.3 μM KN-93, 0.3 μM AIP, alone or combined, 30 min preincubation, then 50 nmol/L ATX-II, listed as RAN) [%] | Measured % Inhibition of ATX-II-induced increase of diastolic tension [3] [%] | Measured % Inhibition of ATX-II-induced increase of diastolic tension ([3]; listed as RAN) [%]
1 | COc1ccc(S(=O)(=O)N(CCO)c2ccccc2CN(C)C/C=C/c2ccc(Cl)cc2)cc1 [KN-93] | failed to attenuate | 24.1 ± 7.6 | 23 | prevented | 8.4 | – | – | – | – | – | – | – | – | – | – | – | – | –
2 | FC(F)(F)Oc1ccc(-c2ccc3nnc(C(F)(F)F)n3c2)cc1 [GS-967, 6-[4-(trifluoromethoxy)phenyl]-3-(trifluoromethyl)[1,2,4]triazolo[4,3-a]pyridine] | failed to attenuate | 34.2 ± 4.8 | – | – | – | 34 | 1.29 | minimal | increased | prevented and reversed | 9.1 | 13 | 210 | 130 | more potent and effective | – | – | –
3 | COc1ccccc1OCC(O)CN1CCN(CC(=O)Nc2c(C)cccc2C)CC1 (racemic) [ranolazine, (±)—N-(2,6-dimethylphenyl)-4-[2-hydroxy-3-(2-methoxyphenoxy)-propyl]-1-piperazineacetamide] | failed to attenuate | 28 | – | – | – | – | 14.8 | – | – | – | – | – | – | – | – | 23.8 ± 3.1 | 10.4 | 5.5 ± 1.5
